# Data published in publication PMC5955437, “Antifungal activity of osthol in vitro and enhancement in vivo through Eudragit S100 nanocarriers” (Virulence, 2017).
# Read-outs that look alike come from different tables or passages of the source.
# What was measured:
# [1] = test system: clinical isolates of C. albicans resistant to FLC; test: Checkerboard microdilution assay (CLSI M27-A2), FLC-resistant clinical isolates; assay type: cell-based, Candida albicans; conditions: for antifungal activity when tested alone: FLC-resistant isolates, drug alone; for MIC80 alone / MIC80: 35 °C, 24 h; for MIC80 in combination: FLC combined with Ost; for MIC80: Candida albicans, read-out: MIC80 alone
# Method: (§1) Eleven clinical isolates of FLC-resistant C. albicans were used in this study, and C. albicans ATCC 90028 was used as a quality control. Drugs prepared in dimethyl sulfoxide (DMSO) included osthol (Shanghai Jianglai Biotechnology Co. Ltd, China) and fluconazole (Pfizer-Roerig Pharmaceuticals, New York, NY).
# (§2) Assays were performed on all 11 isolates according to methods of the CLSI (formerly NCCLS) (M27-A2). The concentration of fungus suspension in RPMI 1640 medium was 10^3 CFU/ml, and the final concentration ranged from 0.125 to 64 μg/ml for FLC and 1 to 32 μg/ml for OST. Plates were incubated at 35 °C for 24 h. Optical density was measured at 630 nm and background optical densities were subtracted from each well. MIC80 were defined as the minimum inhibition concentration of the drugs that inhibited growth by 80% when compared with drug-free wells. The fractional inhibitory concentration index (FICI) were defined as the sum of the MIC80 of each drug when used in combination divided by the MIC80 of the drug used alone. Synergism and antagonism were defined by FICIs of≤ 0.5 and >4, respectively. An FICI result of > 0.5 but ≤ 4 was considered indifferent.[43]
# C. albicans ATCC 90028 = test: Checkerboard microdilution assay, quality control strain; assay type: cell-based, Candida albicans; conditions: ATCC90028; for MIC80 in combination: FLC combined with Ost
# Method: as §1, §2
# C. albicans 103 [2] = test: Agar disk diffusion test; assay type: cell-based, Candida albicans; conditions: for anti-fungal activity, disk on plain agar: Ost alone
# Method: C. albicans 103 (FLC-resistant isolate with a MIC80 of 64 μg/ml for […]) was tested by agar diffusion assay.[44] A 100 μl of C. albicans 103 in 10^6 CFU/ml suspension was spread uniformly onto the yeast extract-peptone-dextrose agar plate with or without 64 μg/ml FLC. Then, 6-mm paper disks impregnated with Ost and FLC alone or in combination were placed onto the agar surface. There was 5 μl of DMSO in control disks. Inhibition zones were measured after incubation at 35°C for 48 h. Assays were performed in duplicate.
# C. albicans 103 [3] = test: Survival of immunosuppressed mice systemically infected with C. albicans; assay type: in vivo, Candida albicans; conditions: immunosuppressed ICR mice, 1 × 10^6 CFU i.v.; oral FLC 0.5 mg/kg/day, Ost 150 mg/kg/day, 4 d treatment
# Method: Sixty female ICR mice (weighing 20–25 g) were prepared in the antifungal study in vivo. We followed the methods of Junius M et al. and Kenneth et al. with a few modifications.[45,46] Briefly, acute infections in immunosuppressed mice, resulting from a 80 mg/kg/day intravenous dose of cyclophosphamide 3 d before infection, then injected with 1 × 10^6 CFU C. albicans in 0.2 ml of saline intravenously. This inoculum was uniformly lethal for placebo-treated animals within a week. After inoculation, the mice were randomly separated into 6 groups (10 animals per group), including saline control group and medication administration groups (FLC, Ost-S100-NP, Ost-suspensions, Ost-suspensions plus FLC, and Ost-S100-NP plus FLC). The dosages of FLC and Ost are 0.5 mg/kg/day and 150 mg/kg/day by oral administration. Therapy was begun 2 hours post infection and last for 4 d. The survival time was calculated from the day 0 since inoculation to the day of death. Survival data were presented as Kaplan-Merier plots and analyzed with a Log-rank Test (SPSS 18; SPSS, Chicago, Illinois). A value of P < 0.05 was considered to be significant.
compound,measurement,setting,value
7-methoxy-8-[3-methylpent-2-enyl] coumarin [Ost],antifungal activity when tested alone,[1],weak antifungal activity
same,MIC80 alone,[1]; isolate 32,64 µg/mL
same,MIC80 in combination,[1]; isolate 32,4 µg/mL
same,MIC80 alone,[1]; isolate 100,32 µg/mL
same,MIC80 in combination,[1]; isolate 100,4 µg/mL
same,MIC80 alone,[1]; isolate 103,64 µg/mL
same,MIC80 in combination,[1]; isolate 103,4 µg/mL
same,MIC80 alone,[1]; isolate 557,64 µg/mL
same,MIC80 in combination,[1]; isolate 557,2 µg/mL
same,MIC80 alone,[1]; isolate 842,64 µg/mL
same,MIC80 in combination,[1]; isolate 842,2 µg/mL
same,MIC80 alone,[1]; isolate 901,16 µg/mL
same,MIC80 in combination,[1]; isolate 901,4 µg/mL
same,MIC80 alone,[1]; isolate 904,>64 µg/mL
same,MIC80 in combination,[1]; isolate 904,4 µg/mL
same,MIC80 alone,[1]; isolate 953,32 µg/mL
same,MIC80 in combination,[1]; isolate 953,4 µg/mL
same,MIC80 alone,[1]; isolate J5,64 µg/mL
same,MIC80 in combination,[1]; isolate J5,8 µg/mL
same,MIC80 alone,[1]; isolate J28,64 µg/mL
same,MIC80 in combination,[1]; isolate J28,8 µg/mL
same,MIC80 alone,[1]; isolate J35,32 µg/mL
same,MIC80 in combination,[1]; isolate J35,8 µg/mL
same,MIC80 alone,"C. albicans ATCC 90028; 35 °C, 24 h",8 µg/mL
same,MIC80 in combination,C. albicans ATCC 90028,1 µg/mL
same,mean diameter of the inhibitory zone,C. albicans 103 [2]; 8 μg Ost disk on YEPD plate containing 64 μg/ml FLC,8 mm
same,mean diameter of the inhibitory zone,C. albicans 103 [2]; 16 μg Ost disk on YEPD plate containing 64 μg/ml FLC,12 mm
same,mean diameter of the inhibitory zone,C. albicans 103 [2]; 32 μg Ost disk on YEPD plate containing 64 μg/ml FLC,16 mm
same,mean diameter of the inhibitory zone,C. albicans 103 [2]; 64 μg Ost disk on YEPD plate containing 64 μg/ml FLC,21 mm
same,"anti-fungal activity, disk on plain agar","C. albicans 103 [2]; 64 μg, 35°C, 48 h",weak anti-fungal activity
same,"anti-fungal activity, disk on plain agar","C. albicans 103 [2]; smaller dosage (below 64 μg), 35°C, 48 h",no anti-fungal activity
"OC(Cn1cncn1)(Cn1cncn1)c1ccc(F)cc1F [FLC, fluconazole, reference compound]",MIC80,[1]; isolate 32,64 µg/mL
same,MIC80,[1]; isolate 100,> 64 µg/mL
same,MIC80,[1]; isolate 103,> 64 µg/mL
same,MIC80,[1]; isolate 557,> 64 µg/mL
same,MIC80,[1]; isolate 842,> 64 µg/mL
same,MIC80,[1]; isolate 901,> 64 µg/mL
same,MIC80,[1]; isolate 904,> 64 µg/mL
same,MIC80,[1]; isolate 953,64 µg/mL
same,MIC80,[1]; isolate J5,> 64 µg/mL
same,MIC80,[1]; isolate J28,> 64 µg/mL
same,MIC80,[1]; isolate J35,64 µg/mL
same,antifungal activity when tested alone,[1],weak antifungal activity
same,MIC80 in combination,[1]; isolate 32,2 µg/mL
same,MIC80 in combination,[1]; isolate 100,4 µg/mL
same,MIC80 in combination,[1]; isolate 103,4 µg/mL
same,MIC80 in combination,[1]; isolate 557,2 µg/mL
same,MIC80 in combination,[1]; isolate 842,2 µg/mL
same,MIC80 in combination,[1]; isolate 901,2 µg/mL
same,MIC80 in combination,[1]; isolate 904,2 µg/mL
same,MIC80 in combination,[1]; isolate 953,2 µg/mL
same,MIC80 in combination,[1]; isolate J5,2 µg/mL
same,MIC80 in combination,[1]; isolate J28,8 µg/mL
same,MIC80 in combination,[1]; isolate J35,1 µg/mL
same,MIC80 in combination,C. albicans ATCC 90028,0.0625 µg/mL
same,MIC80,"C. albicans ATCC 90028; Candida albicans, 35 °C, 24 h, read-out: MIC80 alone",0.25 µg/mL
same,"inhibition, disk on plain agar","C. albicans 103 [2]; FLC alone, 10 μg, 35°C, 48 h",only weak inhibition
same,average survival day,C. albicans 103 [3],8.7 days
